We go through four compounds from US6342523B1, “3,4,5-trisubstituted aryl nitrone compounds, pharmaceutical compositions containing the same and methods for treating inflammation” (Centaur Pharmaceuticals, Inc., priority 1998, dated 2002).

Data set [1] addresses T1, cyclooxygenase 2 (COX-2) (Ovis aries, UniProt P79208).
T1 sequence (P79208 17-603): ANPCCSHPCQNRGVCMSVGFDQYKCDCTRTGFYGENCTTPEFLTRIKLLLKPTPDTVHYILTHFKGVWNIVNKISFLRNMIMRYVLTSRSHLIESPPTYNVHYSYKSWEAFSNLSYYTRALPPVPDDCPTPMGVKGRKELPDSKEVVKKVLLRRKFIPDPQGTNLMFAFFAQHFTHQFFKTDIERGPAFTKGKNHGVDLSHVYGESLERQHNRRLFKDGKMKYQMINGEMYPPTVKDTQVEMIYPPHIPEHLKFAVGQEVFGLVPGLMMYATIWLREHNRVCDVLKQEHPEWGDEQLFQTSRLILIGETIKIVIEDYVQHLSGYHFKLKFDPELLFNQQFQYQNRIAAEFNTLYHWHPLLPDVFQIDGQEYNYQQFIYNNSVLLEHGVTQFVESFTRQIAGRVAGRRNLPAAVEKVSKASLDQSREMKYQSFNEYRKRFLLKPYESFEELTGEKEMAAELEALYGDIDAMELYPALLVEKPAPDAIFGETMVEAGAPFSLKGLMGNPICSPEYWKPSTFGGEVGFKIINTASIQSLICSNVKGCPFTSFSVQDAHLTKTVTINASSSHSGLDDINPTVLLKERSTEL
As to the kind of experiment: Inhibition of COX-2 (arachidonic acid incubation, PGE2 formation by malondialdehyde quantitation). Particulars: 300 μM; COX-2 derived from sheep placenta.
Protocol: (§1) The inhibition of COX-I was measured by incubating arachidonic acid with COX-1 derived from ram seminal vesicles. The inhibition of COX-2 was measured by incubation of arachidonic acid with COX-2 derived from sheep placenta. […] In each assay, the formation of prostaglandin E2 (PGE2) was measured by spectrophotometric quantitation of malondialdehyde.

Data set [2] has as its target T2, cyclooxygenase 1 (COX-1) (Ovis aries, UniProt P05979).
T2 sequence (P05979 25-600): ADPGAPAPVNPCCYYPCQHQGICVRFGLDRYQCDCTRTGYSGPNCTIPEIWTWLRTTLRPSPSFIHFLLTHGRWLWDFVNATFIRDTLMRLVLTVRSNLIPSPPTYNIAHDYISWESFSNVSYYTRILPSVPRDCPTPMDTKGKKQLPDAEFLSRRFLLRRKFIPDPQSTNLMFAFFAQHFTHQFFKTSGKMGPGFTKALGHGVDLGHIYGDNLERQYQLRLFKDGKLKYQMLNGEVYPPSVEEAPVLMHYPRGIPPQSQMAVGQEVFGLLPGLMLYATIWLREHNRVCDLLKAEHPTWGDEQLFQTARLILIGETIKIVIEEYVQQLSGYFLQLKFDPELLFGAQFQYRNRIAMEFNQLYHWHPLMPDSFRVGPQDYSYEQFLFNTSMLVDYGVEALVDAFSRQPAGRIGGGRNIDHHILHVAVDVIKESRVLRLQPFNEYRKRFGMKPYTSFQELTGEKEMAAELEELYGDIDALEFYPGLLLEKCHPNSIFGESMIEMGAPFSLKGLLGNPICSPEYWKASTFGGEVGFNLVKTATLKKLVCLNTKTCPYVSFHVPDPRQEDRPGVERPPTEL
Kind of data set: Inhibition of COX-1 (arachidonic acid incubation, PGE2 formation by malondialdehyde quantitation). Particulars: 300 μM; COX-1 derived from ram seminal vesicles.
Protocol: as §1

The test system of data set [3] is adjuvant-induced footpad edema. As to the kind of experiment: Adjuvant assay (adjuvant-induced footpad edema). The class given is in vivo. The following applies: Male Lewis rats; 3 mg/kg, po; dosing day 14 to day 21 post-adjuvant. The procedure:
This assay is a model for chronic inflammation. See, for example, […], “Rat Adjuvant Arthritis: A Model of Chronic Inflammation,” Pharmacological Methods in the Control of Inflammation, 363-380 (1989) and references cited therein. In this assay, Male Lewis rats weighing between 180-220 g were lightly anesthetized with an ip injection of 30 mg/kg of sodium pentobarbital (50 mg/mL). Desiccated Mycobacterium butyrium (Difco, 20 mg/mL) suspended in mineral oil was injected (50 μL) at both sides of the base of the tail under the skin. A line was tattooed on both rear paws at 5 mm above the angle of the ankle. The paw volumes, under the line, were measured by volume displacement using a plethysmonmeter (Ugo Basile) at the day of adjuvant injection (day 0) and on day 14. On day 14, animals with paw volumes equal to the mean of paw volumes±SD were randomized into treatment groups. Rats which fell outside±1 SD were not used in the experiment. […] Dosing began on day 14, and continued until final assessment on day 21 post-adjuvant injection. […] This group has a slightly positive volume increase when paw volumes on day 21 are subtracted from day 0 values due to growth of the rat. […] Compounds reducing paw volume by at least about 30% compared to vehicle control group were considered effective in this test.

The term melting point denotes the temperature, or range, at which the solid turns liquid. The compound `CCC(=O)Oc1c(C(C)(C)C)cc(/C=[N+](\[O-])C(C)(C)C)cc1C(C)(C)C` [Example 8, α-(4-propionyloxy-3,5-di-tert-butylphenyl)-N-tert-butylnitrone] gave a melting point of 202 to 222 °C.

In turn, `CC(=O)Oc1c(C(C)(C)C)cc(/C=[N+](/C)[O-])cc1C(C)(C)C` [Example 9, α-(4-acetoxy-3,5-di-tert-butylphenyl)-N-methylnitrone] returned a melting point of 136 to 143 °C.

Regarding `CC(=O)Oc1c(C(C)(C)C)cc(/C=[N+](\[O-])C(C)(C)C)cc1C(C)(C)C` [Example 1, α-(4-Acetoxy-3,5-di-tert-butylphenyl)-N-tert-butylnitrone], in data set [1], the “Inhibition of COX-2” value is on record as “did not significantly affect”. Further, in data set [2], the “Inhibition of COX-1” value was “did not significantly affect”.

For `COc1ccc2c(c1)c(CC(=O)O)c(C)n2C(=O)c1ccc(Cl)cc1` [indomethacin], in data set [3], the “Paw volume compared to vehicle controls” value is “significantly reduced paw volume”.
